Columns and labels:
[1] = molecular target: Apolipoprotein L1 (Homo sapiens, UniProt O14791); experiment: Inhibition of APOL1 G1 variant in human HEK293-T-REx cells measured by Thallium assay; format: cell-based
[2] = test system: Trypanosoma brucei brucei; experiment: Antitrypanosomal activity against Trypanosoma brucei brucei assessed as trypanosome lysis using recombinant APOL1 protein G1 variant and measured by Alamar blue based fluoresence assay; format: functional, organism-based

Structure (SMILES)	IC50 [1] [nM]	IC50 [2] [nM]
O=C(N[C@H]1CC[C@@H](CO)O1)[C@H]1C[C@H](c2c(-c3ccc(F)cc3)[nH]c3c(F)cc(F)cc32)C1	> 1000	> 1000
O=C1CCC(NC(=O)[C@H]2C[C@H](c3c(-c4ccc(F)cc4)[nH]c4c(F)cc(F)cc43)C2)C1 (stereo not given in full)	> 1000	> 1000
CC(O)(CO)CNC(=O)[C@H]1C[C@H](c2c(-c3ccc(F)cc3)[nH]c3c(F)cc(F)cc32)C1 (stereo not given in full)	> 1000	> 1000
O=C1C[C@H](NC(=O)[C@H]2C[C@H](c3c(-c4ccc(F)cc4)[nH]c4c(F)cc(F)cc43)C2)C(=O)N1	< 250	< 250
CN(CC(O)CO)C(=O)[C@H]1C[C@H](c2c(-c3ccc(F)cc3)[nH]c3c(F)cc(F)cc32)C1 (stereo not given in full)	> 1000	250
O=C([C@H]1C[C@H](c2c(-c3ccc(F)cc3)[nH]c3c(F)cc(F)cc32)C1)N1CCOC[C@H]1CO	> 1000	250
O=C([C@H]1C[C@H](c2c(-c3ccc(F)cc3)[nH]c3c(F)cc(F)cc32)C1)N1CC[C@H]1CO	0.25	< 250
Cc1noc(CNC(=O)[C@H]2C[C@H](c3c(-c4ccc(F)cc4)[nH]c4c(F)cc(F)cc43)C2)n1	< 250	< 250
O=C([C@H]1C[C@H](c2c(-c3ccc(F)cc3)[nH]c3c(F)cc(F)cc32)C1)N1CCC[C@@H]1CO	0.25	< 250
O=C([C@H]1C[C@H](c2c(-c3ccc(F)cc3)[nH]c3c(F)cc(F)cc32)C1)N1CCCC[C@@H]1CCO	> 1000	> 1000
COC[C@@H]1CCN1C(=O)[C@H]1C[C@H](c2c(-c3ccc(F)cc3)[nH]c3c(F)cc(F)cc32)C1	> 1000	< 250
O=C1C[C@@H](NC(=O)[C@H]2C[C@H](c3c(-c4ccc(F)cc4)[nH]c4c(F)cc(F)cc43)C2)C(=O)N1	< 250	< 250
O=C(NC1CNC[C@@H]1O)[C@H]1C[C@H](c2c(-c3ccc(F)cc3)[nH]c3c(F)cc(F)cc32)C1 (stereo not given in full)	> 1000	250
NC(=O)[C@H]1C[C@H](c2c(-c3ccc(F)cc3)[nH]c3c(F)cc(F)cc32)C1	0.25	< 250
N#CC(CO)NC(=O)[C@H]1C[C@H](c2c(-c3ccc(F)cc3)[nH]c3c(F)cc(F)cc32)C1 (stereo not given in full)	< 250	< 250
O=C([C@H]1C[C@H](c2c(-c3ccc(F)cc3)[nH]c3c(F)cc(F)cc32)C1)N1CCC[C@H]1CO	> 1000	250
CC(CO)(CO)NC(=O)[C@H]1C[C@H](c2c(-c3ccc(F)cc3)[nH]c3c(F)cc(F)cc32)C1	< 250	< 250
NC(=O)[C@H]1CCCN1C(=O)[C@H]1C[C@H](c2c(-c3ccc(F)cc3)[nH]c3c(F)cc(F)cc32)C1	0.25	> 1000
Cn1cncc1CNC(=O)[C@H]1C[C@H](c2c(-c3ccc(F)cc3)[nH]c3c(F)cc(F)cc32)C1	> 1000	250
CC1(CO)CCN1C(=O)[C@H]1C[C@H](c2c(-c3ccc(F)cc3)[nH]c3c(F)cc(F)cc32)C1 (stereo not given in full)	0.25	< 250
O=C1N[C@H](CO)C[C@@H]1NC(=O)[C@H]1C[C@H](c2c(-c3ccc(F)cc3)[nH]c3c(F)cc(F)cc32)C1	> 1000	> 1000
CC[C@@H](CO)NC(=O)[C@H]1C[C@H](c2c(-c3ccc(F)cc3)[nH]c3c(F)cc(F)cc32)C1	0.25	< 250

Structure (SMILES)	IC50 [1] [nM]	IC50 [2] [nM]
CCC(CO)NC(=O)[C@H]1C[C@H](c2c(-c3ccc(F)cc3)[nH]c3c(F)cc(F)cc32)C1 (stereo not given in full)	< 250	250
C[C@]1(NC(=O)[C@H]2C[C@H](c3c(-c4ccc(F)cc4)[nH]c4c(F)cc(F)cc43)C2)C[C@@H](O)C1	0.25	250
O=C(NCc1nnco1)[C@H]1C[C@H](c2c(-c3ccc(F)cc3)[nH]c3c(F)cc(F)cc32)C1	0.25	< 250
O=C(NC[C@H](O)C(F)(F)F)[C@H]1C[C@H](c2c(-c3ccc(F)cc3)[nH]c3c(F)cc(F)cc32)C1	0.25	< 250
O=C(NCC1(O)CC1)[C@H]1C[C@H](c2c(-c3ccc(F)cc3)[nH]c3c(F)cc(F)cc32)C1	0.25	250
CC(CO)N(C)C(=O)[C@H]1C[C@H](c2c(-c3ccc(F)cc3)[nH]c3c(F)cc(F)cc32)C1 (stereo not given in full)	< 250	250
O=C1NCC[C@@H]1NC(=O)[C@H]1C[C@H](c2c(-c3ccc(F)cc3)[nH]c3c(F)cc(F)cc32)C1	0.25	250
O=C(N[C@H]1CCC[C@@H]1O)[C@H]1C[C@H](c2c(-c3ccc(F)cc3)[nH]c3c(F)cc(F)cc32)C1	0.25	250
O=C(N[C@@H]1CCC[C@H]1O)[C@H]1C[C@H](c2c(-c3ccc(F)cc3)[nH]c3c(F)cc(F)cc32)C1	> 1000	> 1000
O=C(N[C@H](CO)C(F)(F)F)[C@H]1C[C@H](c2c(-c3ccc(F)cc3)[nH]c3c(F)cc(F)cc32)C1	0.25	< 250
O=C(NC(CO)C1CC1)[C@H]1C[C@H](c2c(-c3ccc(F)cc3)[nH]c3c(F)cc(F)cc32)C1 (stereo not given in full)	0.25	250
O=C(N[C@H]1CC[C@@H]1O)[C@H]1C[C@H](c2c(-c3ccc(F)cc3)[nH]c3c(F)cc(F)cc32)C1	> 1000	250
O=C1NCCC1CNC(=O)[C@H]1C[C@H](c2c(-c3ccc(F)cc3)[nH]c3c(F)cc(F)cc32)C1 (stereo not given in full)	> 1000	> 1000
CC(C)(O)C(O)CNC(=O)[C@H]1C[C@H](c2c(-c3ccc(F)cc3)[nH]c3c(F)cc(F)cc32)C1 (stereo not given in full)	> 1000	250
O=C(N[C@H]1CC[C@H](O)C1)[C@H]1C[C@H](c2c(-c3ccc(F)cc3)[nH]c3c(F)cc(F)cc32)C1	> 1000	> 1000
O=C1OCC[C@@H]1NC(=O)[C@H]1C[C@H](c2c(-c3ccc(F)cc3)[nH]c3c(F)cc(F)cc32)C1	0.25	250
Cc1nnc(CNC(=O)[C@H]2C[C@H](c3c(-c4ccc(F)cc4)[nH]c4c(F)cc(F)cc43)C2)o1	0.25	< 250
O=C([C@H]1C[C@H](c2c(-c3ccc(F)cc3)[nH]c3c(F)cc(F)cc32)C1)N1CCN[C@H](CO)C1	> 1000	250
O=C(N[C@@H]1CC[C@H](O)C1)[C@H]1C[C@H](c2c(-c3ccc(F)cc3)[nH]c3c(F)cc(F)cc32)C1	> 1000	> 1000
CC(O)CNC(=O)[C@H]1C[C@H](c2c(-c3ccc(F)cc3)[nH]c3c(F)cc(F)cc32)C1 (stereo not given in full)	0.25	250
O=C([C@H]1C[C@H](c2c(-c3ccc(F)cc3)[nH]c3c(F)cc(F)cc32)C1)N1CC[C@@H]1CO	< 250	< 250
O=C(NC1(CO)CC(F)(F)C1)[C@H]1C[C@H](c2c(-c3ccc(F)cc3)[nH]c3c(F)cc(F)cc32)C1	0.25	< 250

Structure (SMILES)	IC50 [1] [nM]	IC50 [2] [nM]
CC(C#N)(CO)NC(=O)[C@H]1C[C@H](c2c(-c3ccc(F)cc3)[nH]c3c(F)cc(F)cc32)C1 (stereo not given in full)	0.25	< 250
O=C(NC[C@@H](O)C(F)(F)F)[C@H]1C[C@H](c2c(-c3ccc(F)cc3)[nH]c3c(F)cc(F)cc32)C1	0.25	250
C[C@@H](O)CNC(=O)[C@H]1C[C@H](c2c(-c3ccc(F)cc3)[nH]c3c(F)cc(F)cc32)C1	0.25	250
CC1(NC(=O)[C@H]2C[C@H](c3c(-c4ccc(F)cc4)[nH]c4c(F)cc(F)cc43)C2)CCNC1=O (stereo not given in full)	0.25	< 250
NC(=O)[C@@H](CO)NC(=O)[C@H]1C[C@H](c2c(-c3ccc(F)cc3)[nH]c3c(F)cc(F)cc32)C1	< 250	< 250
O=C(N[C@H]1CC[C@H]1O)[C@H]1C[C@H](c2c(-c3ccc(F)cc3)[nH]c3c(F)cc(F)cc32)C1	0.25	250
C#CC(CO)NC(=O)[C@H]1C[C@H](c2c(-c3ccc(F)cc3)[nH]c3c(F)cc(F)cc32)C1 (stereo not given in full)	0.25	< 250
CC1CC(NC(=O)[C@H]2C[C@H](c3c(-c4ccc(F)cc4)[nH]c4c(F)cc(F)cc43)C2)C(=O)O1 (stereo not given in full)	> 1000	> 1000
O=C(NCC1(O)COC1)[C@H]1C[C@H](c2c(-c3ccc(F)cc3)[nH]c3c(F)cc(F)cc32)C1	0.25	250
O=C([C@H]1C[C@H](c2c(-c3ccc(F)cc3)[nH]c3c(F)cc(F)cc32)C1)N1CC(CO)C1	> 1000	< 250
C[C@@H](O)[C@H](CO)NC(=O)[C@H]1C[C@H](c2c(-c3ccc(F)cc3)[nH]c3c(F)cc(F)cc32)C1	> 1000	250
O=C(N[C@@H](CO)C(F)(F)F)[C@H]1C[C@H](c2c(-c3ccc(F)cc3)[nH]c3c(F)cc(F)cc32)C1	0.25	< 250
NC(=O)[C@H]1CCN(C(=O)[C@H]2C[C@H](c3c(-c4ccc(F)cc4)[nH]c4c(F)cc(F)cc43)C2)C1	> 1000	> 1000
O=C(N[C@@H]1CCC[C@@H]1O)[C@H]1C[C@H](c2c(-c3ccc(F)cc3)[nH]c3c(F)cc(F)cc32)C1	> 1000	250
O=C(NC1(CO)CCOC1)[C@H]1C[C@H](c2c(-c3ccc(F)cc3)[nH]c3c(F)cc(F)cc32)C1 (stereo not given in full)	< 250	< 250
O=C1CC[C@@H](NC(=O)[C@H]2C[C@H](c3c(-c4ccc(F)cc4)[nH]c4c(F)cc(F)cc43)C2)C1	> 1000	> 1000
Cn1ncc(CNC(=O)[C@H]2C[C@H](c3c(-c4ccc(F)cc4)[nH]c4c(F)cc(F)cc43)C2)n1	0.25	< 250
CN(C(=O)[C@H]1C[C@H](c2c(-c3ccc(F)cc3)[nH]c3c(F)cc(F)cc32)C1)C1COCC1O (stereo not given in full)	> 1000	> 1000
O=C(NCc1cnoc1)[C@H]1C[C@H](c2c(-c3ccc(F)cc3)[nH]c3c(F)cc(F)cc32)C1	0.25	< 250
O=C([C@H]1C[C@H](c2c(-c3ccc(F)cc3)[nH]c3c(F)cc(F)cc32)C1)N1CCOC[C@@H]1CO	0.25	< 250
CS(=O)(=O)NC(=O)[C@H]1C[C@H](c2c(-c3ccc(F)cc3)[nH]c3c(F)cc(F)cc32)C1	> 1000	> 1000

Source: ChEMBL document CHEMBL5052856, “Inhibitors of apol1 and methods of using same” (2021)
